From patent US20210400981A1, “ANTIMICROBIAL OZONE COMPOSITIONS AND METHODS OF USE THEREOF” (priority 2018, published 2021)

Experiments:
[1] = tested on: S. aureus subspecies aureus Rosenbach, strain FDA 209; assay: ASTM E1153-14 glass coupon test, 5 min treatment, CFU plate counts; type: cell-based, Staphylococcus aureus
From the text: A freeze-dried stock of Staphylococcus (S. aureus subspecies aureus Rosenbach, strain FDA 209) was obtained from American Type Culture Collection (ATCC, Manassas, Va.). After rehydration and growth in appropriate culture medium (Staphylococcus: BD Tryptic soy broth lot #4335611), both plated stocks and stocks frozen in glycerol were created. Staphylococcus was qualified for absorbance at 600 nm versus colony forming units (CFU) by serially diluting inoculum and reading absorbance followed by plating of dilutions onto agar plates. […] Twenty microliters of the resulting inoculum were used to coat glass slides (Fisher), also known as test squares or coupons with 10^5 to 10^7 cells, as calculated from the standard curve generated from the absorbance qualification data, and allowed to dry in a 37° C. incubator for 40 minutes following ASTM E1153-14 (www.astm.org/Standards/E1153.htm). […]
After incubation for 5 minutes following ASTM E1153-14, the supernatant in the vial was sampled and placed on test agar plates at a volume of 0.2 ml. […] Colony forming units (CFU) for each plate were counted, recorded and averaged for each sample. […] Sample CFUs were analyzed for statistical significance using the Mann Whitney U test with significance level α=0.05. […]

Salmonella enterica = assay: Test coupons coated with Salmonella enterica, CFU reduction versus water; type: cell-based; conditions: 0.05M acetate buffer with or without 1.5 ppm aqueous ozone
Klebsiella = assay: Test coupons coated with Klebsiella, CFU reduction versus water; conditions: acetate buffer with or without 1.5 ppm aqueous ozone
[2] = tested on: Staphylococcus aureus subspecies aureus Rosenbach, strain FDA 209; assay: AOAC method (961.02) spray disinfection of glass coupons, 10 min, turbidity (+/-) in Letheen broth; type: cell-based; conditions: for coupons negative: range-finding; for Percent kill / Number− / Number+: 10 min; for Number−: negative coupons; for Number+: positive coupons
From the text: A freeze-dried stock of Staphylococcus (Staphylococcus aureus subspecies aureus Rosenbach, strain FDA 209), as specified by the AOAC method (961.02), was obtained from ATCC. After rehydration and growth in appropriate culture medium (BD Tryptic soy broth lot #4335611), both plated stocks and stocks frozen in glycerol were created. Staphylococcus was quantified for absorbance at 600 nm versus colony forming units (CFU) by serially diluting inoculum and reading absorbance followed by plating of dilutions onto agar plates. Prior to aqueous ozone testing, growth medium was inoculated and incubated in a shaker incubator (New Brunswick Scientific, serial #890615130) at 37° C. for 24 hours and then transfer cultured two additional times with a final incubation of 48 hours. Twenty microliters of the resulting inoculum was used to coat glass slides (Fisher), also known as test squares or coupons, with 10^5 to 10^7 cells, as calculated from the standard curve generated from the absorbance qualification data, and allowed to dry in a 37° C. incubator for 40 minutes following ASTM E1153-14. After drying, treated coupons were sequentially treated with 1.5 or 4 ppm aqueous ozone alone, 1.5 or 4 ppm aqueous ozone combined with a predetermined dilution of PAA, or PAA alone, then incubated for 10 minutes at room temperature. Additionally, immediately before and after testing three inoculated untreated coupons were place in labeled 50 ml conical tubes containing 20 ml of Letheen broth, vortexed, pooled, and plated to provide carrier counts. The mean log 10 density (LD) of the carrier counts for S. aureus must be between 5.0 and 6.5 in order for the test to be valid in this method.
Briefly, aqueous ozone was generated using the free standing CCT 1.0 unit (mounted in a kiosk enclosure) at a concentration of 1.5 ppm or 4 ppm. The water source utilized by the CCT 1.0 was clean, cold, softened Omaha municipal tap water. […] Aqueous ozone was sterile collected in a biological safety cabinet before and used immediately. Treatments were applied to the appropriate freshly prepared coupons contained within labeled petri dishes using a sprayer provided by CleanCore.
Following the testing period, coupons were removed from the individual petri dishes and transferred to corresponding labeled 50 ml conical tubes containing 20 ml of Letheen broth. One sterile un-inoculated coupon and one inoculated untreated coupon were also transferred to separate labeled 50 ml conical tubes containing 20 ml of Letheen broth in order to provide sterility and viability controls, respectively. All testing vials were shaken then incubated at 36±1° C. for 48±2 hours, then visually assessed for turbidity(+). Positive sample vials were plated to determine colony morphology similarity to test organism. All test plates were plated with 0.2 ml spread onto 2 replicates using a glass spreader and a Bel-Art inoculating turntable. Results of testing were analyzed for statistical significance in SPSS using a McNemar exact test for dichotomous data, with a significance level of α=0.05.

Campylobacter jejuni = assay: Antimicrobial spray on inoculated chicken carcasses, rinsate plate counts; type: cell-based
Protocol: (§1) Briefly, chicken carcasses (70 whole hen carcasses for 7 treatments and 10 replications) were inoculated with 400 mL of a cocktail containing Salmonella Typhimurium (UK-1), E. coli (J53), and Campylobacter jejuni (3×10^7 CFU/mL) and allowed to adhere for 60 minutes at 4° C. for a final concentration of 10^5-10^6 CFU/g. Chicken carcasses then received no treatment (negative control) or were then treated by spraying (4×5 seconds) with tap water, tap water with 10 ppm ozone, tap water with PAA (50 ppm), tap water with PAA (500 ppm), tap water with 10 ppm ozone and PAA (500 ppm), or tap water with 10 ppm ozone and PAA (50 ppm). Further, the ambient PAA was measured using a PAA specific sensor during treatment. After treatment, chicken carcasses were rinsed in 400 mL of neutralizing buffered peptone water (20.0 g of buffered peptone, 7 g of refined soy lecithin or equivalent, 1.0 g of sodium thiosulfate, 12.5 g of sodium bicarbonate, per 1 liter of deionized water) for 2 minutes with agitation. Subsequently, the rinsate was serially diluted, spread plated on Xylose Lysine Deoxycholate (XLD) and Blood Free Campylobacter Agar (BFCA; modified Charcoal-Cefoperazone-Deoxycholate agar (mCCDA)), and incubated aerobically at 37° C. for 24 hours and microaerophilic at 42° C. for 48 hours, respectively. Log-transformed counts were analyzed using one-way ANOVA in JMP 14.0. Means were separated using Tukey's HSD when P≤0.05.

[3] = tested on: Salmonella Typhimurium (UK-1); assay: as above; type: cell-based; conditions: spray 4x5 seconds; 500 ppm PAA with or without 10 ppm ozone
Protocol: as §1

[4] = humans, after exposure; cited from earlier work
[5] = Ability of the buffer to accept aqueous ozone (kiosk sensors and instrumentation); type: physicochemical; conditions: buffer at approximate pH 5.5 to 6, ozonated with the CCT 1.0 kiosk
From the text: Additionally, not all buffering compounds are suitable or effective for use as additives. […] The MES and ascorbate buffers were unable to accommodate the addition of aqueous ozone, showing no ozone in the resulting solution according to the kiosk sensors and instrumentation.

[6] = cited from earlier work
[7] = Table 16A, 1.5 ppm ozone and/or 15 ppm PAA
[8] = Table 16B, 4 ppm ozone and/or 15 ppm PAA
[9] = Table 16C, 1.5 ppm ozone and/or 10 ppm PAA
[10] = Table 16D, 1.5 ppm ozone and/or 20 ppm PAA, three experiments

## CC(=O)O [Acetic acid]
[1]; 0.05M acetate buffer with or without 1.5 ppm aqueous ozone
  log reduction of S. aureus CFU post treatment, compared to a water control: less than 1 log
[1]; acetate buffer alone, no ozone
  reduction versus water: 66.92%
Salmonella enterica
  log reduction of Salmonella CFU versus water: 1 log
Klebsiella
  log reduction in Klebsiella CFU versus the water control: 1 log

## CC(=O)OO [PAA, peracetic acid]
[2]; PAA 10 ppm in sterile water
  coupons negative: 3 out of 10 coupons
[2]; PAA 25 ppm in sterile water
  coupons negative: 6 out of 10 coupons
[2]; PAA 50 ppm in sterile water
  coupons negative: 9 out of 10 coupons
[2]; PAA 100 ppm in sterile water
  coupons negative: 9 out of 10 coupons
[2]; [7]
  Percent kill: 76.7%
  Number−: 23
  Number+: 7
[2]; [8]
  Percent kill: 73.3%
  Number−: 22
  Number+: 8
[2]; [9]
  Percent kill: 6.7%
  Number−: 2
  Number+: 28
[2]; [10]
  Percent kill: 87.8%
  Number−: 79
  Number+: 11
Campylobacter jejuni; spray 4x5 seconds, 500 ppm PAA with or without 10 ppm ozone
  log CFU per gram of C. jejuni on carcasses: 4.81 log CFU/g
Campylobacter jejuni; spray on chicken carcasses, P≤0.05
  effect on Campylobacter compared to untreated controls: significantly reduced
[3]
  log CFU per gram of Salmonella on carcasses: 5.86 log CFU/g
[4]
  PAA level that can cause irritation to the upper respiratory tract: 5 ppm

## O=C(O)C(=O)O [Oxalic acid]
[5]
  ozone in the resulting buffered solution: did accept ozonation
[6]
  pKa (second value): 4.40

## O=S(=O)(O)CCN1CCOCC1 [MES, 2-(N-morpholino) ethane sulfonic acid]
[5]
  ozone in the resulting buffered solution: no ozone

## O=C1O[C@H]([C@@H](O)CO)C(O)=C1O [Ascorbic acid]
[5]
  ozone in the resulting buffered solution: no ozone

## O=[O+][O-] [aqueous ozone, ozone]
[2]; [7]
  Percent kill: 0.0%
  Number−: 0
  Number+: 30
[2]; [8]
  Percent kill: 0.0%
  Number−: 0
  Number+: 30
[2]; [9]
  Percent kill: 0.0%
  Number−: 0
  Number+: 30
[2]; [10]
  Percent kill: 0.0%
  Number−: 0
  Number+: 90

## O=C(O)CC(O)(CC(=O)O)C(=O)O [Citric acid]
[5]
  ozone in the resulting buffered solution: did accept ozonation
